This note sets out measurements from ChEMBL document CHEMBL1687691, “From taxuspine x to structurally simplified taxanes with remarkable p-glycoprotein inhibitory activity” (ACS Med Chem Lett, 2010).

Series [1] concerns the target T1, ATP-dependent translocase ABCB1 (Homo sapiens, UniProt P08183). The series can be described thus: Inhibition of human MDR1 expressed in mouse L5178 cells assessed as increase in intracellular accumulation of rhodamine 123 AT 0.1 mM by FACSCalibur flow cytometry. In kind it is cell-based. Particulars: l5178, 100 µM. In general terms: In flow cytometry, cells or beads pass a laser one at a time.

Series [2] addresses T1, ATP-dependent translocase ABCB1. Put plainly: Inhibition of human MDR1 expressed in mouse L5178 cells assessed as increase in intracellular accumulation of rhodamine 123 by FACSCalibur flow cytometry. In kind it is cell-based.

pIC50: −log10 of the molar value.

T1 sequence (P08183 whole entry): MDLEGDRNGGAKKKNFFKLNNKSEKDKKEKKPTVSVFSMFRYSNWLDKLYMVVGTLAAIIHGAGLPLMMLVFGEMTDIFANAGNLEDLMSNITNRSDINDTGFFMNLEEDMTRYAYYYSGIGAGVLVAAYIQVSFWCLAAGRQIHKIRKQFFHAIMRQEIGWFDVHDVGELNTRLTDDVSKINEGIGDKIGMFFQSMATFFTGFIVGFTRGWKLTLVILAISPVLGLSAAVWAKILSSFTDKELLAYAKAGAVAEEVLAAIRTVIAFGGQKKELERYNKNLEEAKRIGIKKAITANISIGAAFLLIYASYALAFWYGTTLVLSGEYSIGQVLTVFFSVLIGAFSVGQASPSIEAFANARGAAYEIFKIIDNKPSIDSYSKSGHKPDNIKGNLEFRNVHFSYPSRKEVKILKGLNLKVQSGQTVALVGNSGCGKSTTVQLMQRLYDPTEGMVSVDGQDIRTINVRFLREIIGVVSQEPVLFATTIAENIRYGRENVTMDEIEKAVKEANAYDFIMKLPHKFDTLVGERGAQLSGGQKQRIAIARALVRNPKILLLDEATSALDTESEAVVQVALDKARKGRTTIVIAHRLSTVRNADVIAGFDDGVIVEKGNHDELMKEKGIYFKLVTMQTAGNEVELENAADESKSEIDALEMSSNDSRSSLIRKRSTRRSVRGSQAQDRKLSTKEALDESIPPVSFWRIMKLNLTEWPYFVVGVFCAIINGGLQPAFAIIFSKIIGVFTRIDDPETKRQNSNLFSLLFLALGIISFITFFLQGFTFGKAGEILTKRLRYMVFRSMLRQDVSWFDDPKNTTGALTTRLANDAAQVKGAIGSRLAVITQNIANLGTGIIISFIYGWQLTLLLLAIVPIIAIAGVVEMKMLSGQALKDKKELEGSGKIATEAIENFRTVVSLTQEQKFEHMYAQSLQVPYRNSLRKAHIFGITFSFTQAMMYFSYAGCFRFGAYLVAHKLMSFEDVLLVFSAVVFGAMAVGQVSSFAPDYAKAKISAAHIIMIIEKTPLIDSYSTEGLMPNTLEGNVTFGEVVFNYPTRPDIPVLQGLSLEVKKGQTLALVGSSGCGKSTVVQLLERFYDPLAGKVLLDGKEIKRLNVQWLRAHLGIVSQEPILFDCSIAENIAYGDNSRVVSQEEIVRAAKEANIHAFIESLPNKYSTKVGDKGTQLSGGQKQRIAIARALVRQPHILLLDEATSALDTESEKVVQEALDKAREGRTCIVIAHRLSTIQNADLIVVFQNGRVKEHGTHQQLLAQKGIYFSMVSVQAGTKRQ

On to `COCCOCO[C@@H]1/C=C\COC(=O)/C=C/[C@@H](OC)[C@@H]2CCC(C)=C1C2(C)C`, for which the Alpha max in series [1] stood at 0.37.

`COCCOCO[C@@H]1/C=C\COC(=O)/C=C/[C@@H](OC)[C@@H]2C[C@@H](OC(=O)c3ccccc3)C(C)=C1C2(C)C`: the pIC50 (in general, the negative decadic logarithm of the IC50, by convention in mol/L) in series [2] is 5.14. Moreover, in series [1], the Alpha max is 1.

Consider `COCCOCO[C@@H]1/C=C\C(OC(C)=O)C(OC(C)=O)/C=C/[C@@H](OC)[C@@H]2CCC(C)=C1C2(C)C` (stereo not given in full), for which the negative logarithm of the IC50 (pIC50) in series [2] was 4.62. Besides, the Alpha max in series [1] is listed as 1.
